From patent US4865619A, “Use, as a coupler, of 2,4-diamino-1,3-dimethoxybenzene or one of its salts, in combination with oxidation dye precursors, for dyeing human hair, hair dyeing composition containing the said coupler and process for preparing the said coupler” (L'Oreal, priority 1987, dated 1989)

Legend:
[1] = mutagenicity (coupler stated to be nonmutagenic)
[2] = coloration of hair by the coupler in combination with oxidation dye precursors, oxidizing alkaline medium; set-up: species or system human
Description: According to this process, the dyeing composition described above is mixed at the time of use with a sufficient quantity of an oxidizing solution, and the mixture obtained is then applied on the hair.
The oxidizing solution contains oxidizing agents such as hydrogen peroxide, urea peroxide or persalts such as ammonium persulphate. "20 volumes" hydrogen peroxide solution is preferably used.
The mixture obtained is applied on the hair; it is left in place for 10 to 40 minutes, preferably 15 to 30 minutes, after which the hair is rinsed, washed with shampoo, rinsed again and dried.

COc1ccc(N)c(OC)c1N [2,4-diamino-1,3-dimethoxybenzene]
mutagenicity [1]: nonmutagenic | stability of the hues to light, inclement weather and washing ([2]; para-aminophenols, after development in the presence of an oxidizing agent): especially stable to light, to inclement weather and to washing | stability of the colorations ([2]; red colorations, in combination with p-aminophenols, oxidizing alkaline medium): good stability
